The numbers were not newly measured in patent US6770295B1 (Pharmacia AB, priority 1998, dated 2004), which cites them from elsewhere.

For this series the following is noted: following oral administration.

Consider `CCN(CC)CC#CCOC(=O)C(O)(c1ccccc1)C1CCCCC1` (racemic) [Oxybutynin, 4-diethylamino-2-butynyl-phenylcyclohexylglycolate], for which the duration result is reported as “three to six”.
